pEC50, pIC50: −log10 of the molar value.
Columns and labels:
[1] = Plasma protein binding, equilibrium dialysis (RED), monkey; format: in vitro ADME; conditions: drug 5 μM; for fraction unbound at 5 μM: read-out: % bound (converted); for recovery at 5 μM: value above 100% due to experimental error (footnote)
Experimental: Brain and plasma drug binding were performed by equilibrium dialysis using the Rapid Equilibrium Dialysis (RED) device. Briefly, 300 μL of plasma or brain homogenate (1 brain/3 buffer) containing drug (5 μM) was equilibrated (4-18 h) against 500 μL of buffered saline. After incubation, the concentration of drug in plasma/brain homogenate and buffer was determined by LC-MS/MS.
Recovery is calculated by determining the total amount of drug in 50 μL of plasma and 50 μL buffer after the incubation and comparing that value to the amount of drug in 50 μL of a plasma sample that was not incubated. For the protein binding assay, drug was added to the plasma and this plasma was added to one side of the dialysis device while buffer was added to the other. After filing the plasma chamber of the equilibrium device, a 50 μL aliquot of plasma was mixed with 50 μL of buffer and then quenched with stop reagent. Drug recovery=(Drug buffer+Drug plasma)/(drug in initial plasma)

[2] = system: IL23p19 in THP-1 Cells; test: LPS induced IL23p19 in THP-1 cells (IFNγ primed), ELISA; format: cell-based; conditions: Homo sapiens; for pIC50: THP-1, LPS, read-out: Cell Assays IC50, IL-23 (LPS, THP-1)
Experimental: On day 1, 50K/well THP-1 cells were seeded and primed with IFNγ (50 ng/mL) in 384-well plates for about 18 hours in RPMI media with 10% FBS. On day 2, the compound was serially diluted in DMSO from 5 mM in 3-fold dilutions, and then diluted 1:125 in RPMI media with 10% FBS. 50 μL/well 2× compound was added to 50 μL/well THP-1 cells (with IFNγ primed) in duplicate in 384 well tissue culture plates. The cells were pre-incubated with compound for 1 hour at 37° C., 5% CO2 before addition of 10 μL/well 11×LPS to give a final concentration of 1 μg/mL LPS. Day 3, after stimulation for 18 hours at 37° C., 5% CO2, the assay plate was centrifuged and 70 μL/well supernatant was harvested. IL-23p19 protein in 70 μL/well of supernatant was measured by sandwich ELISA, and 25 μl/well Cell Titer Glo reagent was added to the remaining cells to measure compound toxicity.
Maxisorp immuno ELISA plates were pre-coated with 25 μL/well of anti-IL-23p19 capture antibody (2.5 ug/mL) in PBS overnight at room temperature. After washing with 1×PBST, the plates were blocked using 100 μL/well of 1% BSA in PBS for 2 hours at room temperature. The plates were washed three times with 1×PBST and 70 μL/well supernatant were added. The plates were incubated at room temperature for 2 hours with shaking and washed three times with 1×PBST. 25 μL/well of biotin labeled anti-IL-12 (p40/p70) detection antibody (100 ng/mL) in PBS with 1% BSA was added and the plates were incubated at room temperature for 2 hours with shaking. After washing three times with 1× PBST, 25 μL/well of streptavidin-HRP (1:200) in PBS with 1% BSA was added and the plates were incubated at room temperature for 20 minutes with shaking. The plates were washed three times with 1× PBST and 25 μL/well of Super Signal ELISA Pico Chemiluminescent Substrate were added. The plates were read with a luminometer, and the chemiluminescence values were entered into Athena (Rigel) for curve fitting, EC50 calculation, and database storage.
(§1) THP-1 cells (100K in 100 μL/well) were primed with 25 ng/mL IFN-γ for 18 hours at 37° C., 5% CO2. Compound was serially diluted in DMSO from 2.5 mM in 4-fold dilutions, and then diluted 1:125 in RPMI 1640 complete media with 10% FBS. 100 μL/well 2× compound was mixed with the 100 μL/well IFN-7 primed THP-1 in 96 well flat-bottom white tissue culture plates. The cells were pre-incubated with compound for 1 hour at 37° C., 5% CO2 and before addition of 10 μL/well 21×LPS to give a final concentration of […] for LPS. The cells were stimulated with LPS for 18 hours at 37° C., 5% CO2. After centrifugation, 100 μL/well supernatant was extracted by using a multichannel pipette. IL-23p19 or TNF-α protein in the supernatant were measured by sandwich ELISA. The remaining IFN-7 primed THP-1 cell pellets were used to perform cell viability assays to determine compound cell toxicity. The plates were read with a luminometer, and the chemiluminescence values were entered into Athena (Rigel) for curve fitting, EC50 calculation, and database storage.
Maxisorp immuno ELISA plates were pre-coated with 100 μL/well of anti-IL-23p19 capture antibody (2.4 μg/mL) in PBS overnight at room temperature. After washing with 1×PBST, the plates were blocked using 300 μL/well of 1% BSA in PBS for 2 hours at room temperature. The plates were washed three times with 1×PBST and 100 μL/well supernatant was added. The plates were incubated at room temperature for 2 hours with shaking. The plates were washed three times with 1×PBST and 100 μL/well of biotin anti-human IL-12 (p40/70) detection antibody (10 ng/mL) in PBS with 0.1% BSA were added. The plates were incubated at room temperature for 2 hours with shaking. The plates were washed three times with 1×PBST and 100 μL/well streptavidin-HRP (1:200) in PBS with 0.1% BSA was added. The plates were incubated at room temperature for 20 minutes with shaking. […]

[3] = system: TLR- and IL-1R-dependent cytokine production; test: Cell assays, average of IL-23 (THP-1), TNFα (PBMC), TNFα (DC); format: cell-based; conditions: Homo sapiens, average of the three cell assays
Excerpt: To evaluate the effect of compound I-1 on TLR and IL-1R-dependent cytokine release, multiple cell types were isolated and stimulated in the presence of compound I-1 or Comparison-1.

[4] = system: TLR4-induced TNF-α production by human THP-1 cells; test: TLR4-induced TNF-α in THP-1 cells; format: cell-based
Experimental: as §1

[5] = system: IL-10-induced production of the cytokine IL-6 in primary human endothelial cells; test: IL-6 production in primary human endothelial cells; format: cell-based
[6] = biological target: IRAK1 (Homo sapiens, UniProt P51617); test: IRAK1 ADP-Glo kinase assay; format: biochemical; conditions: read-out: IRAK1 ADP-Glo Kinase, 8 pt EC50
Chain of IRAK1 (P51617 whole entry): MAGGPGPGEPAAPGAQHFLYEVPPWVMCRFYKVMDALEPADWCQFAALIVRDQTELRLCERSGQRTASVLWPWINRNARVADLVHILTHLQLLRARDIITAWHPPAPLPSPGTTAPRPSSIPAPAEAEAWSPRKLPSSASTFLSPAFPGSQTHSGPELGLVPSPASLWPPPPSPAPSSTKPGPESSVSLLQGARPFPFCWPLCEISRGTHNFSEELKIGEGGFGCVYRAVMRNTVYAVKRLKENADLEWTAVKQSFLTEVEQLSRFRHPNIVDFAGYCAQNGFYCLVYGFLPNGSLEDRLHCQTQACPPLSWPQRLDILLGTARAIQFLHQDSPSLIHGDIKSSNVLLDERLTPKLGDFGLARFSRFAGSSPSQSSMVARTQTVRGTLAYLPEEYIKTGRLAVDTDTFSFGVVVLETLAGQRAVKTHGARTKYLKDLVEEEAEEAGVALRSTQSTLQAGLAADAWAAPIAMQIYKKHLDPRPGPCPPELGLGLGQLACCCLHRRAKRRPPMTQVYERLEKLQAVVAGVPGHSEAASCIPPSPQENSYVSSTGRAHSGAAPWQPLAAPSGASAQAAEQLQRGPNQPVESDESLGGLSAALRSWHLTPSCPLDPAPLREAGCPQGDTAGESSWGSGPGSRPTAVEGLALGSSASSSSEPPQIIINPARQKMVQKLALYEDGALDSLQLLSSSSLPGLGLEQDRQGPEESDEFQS

[7] = system: TLR2-induced TNF-α production in human primary dendritic cells (DC); test: TLR2-induced TNF-α in human primary dendritic cells; format: cell-based

With CCO[C@H]1CC[C@H](n2cc(NC(=O)c3csc(-c4cn[nH]c4)n3)c(-c3nc(F)ccc3F)n2)CC1 [Comparison-1, reference compound] the fraction unbound at 5 μM [1] was 0.003, the recovery at 5 μM [1] was 71.6% and the pIC50 [2] was 7.20. It also gave a pIC50 [3] of 7.49.
Work on CCO[C@H]1CC[C@H](n2cc(NC(=O)c3csc(-c4cn[nH]c4)n3)c(-c3ncccn3)n2)CC1 [Compound I-1, N-(1-((1r,4r)-4-ethoxycyclohexyl)-3-(pyrimidin-2-yl)-1H-pyrazol-4-yl)-2-(1H-pyrazol-4-yl)thiazole-4-carboxamide] yielded a fraction unbound at 5 μM [1] of 0.017, a recovery at 5 μM [1] of 104% and a pIC50 [2] of 8.10. For the same compound, the pEC50 ([2]; THP-1 cells IFNγ primed, LPS 1 μg/mL, 18 h, read-out: IL23-p19 ELISA, THP1-IFNy, LPS, 10 pt EC50) was 8.10, the pIC50 [3] was 8.30 and the “TLR4-induced TNF-α production by human THP-1 cells” value [4] was “inhibits”. The “IL-10-induced production of the cytokine IL-6 in primary human endothelial cells” value [5] was “potently inhibits”, the pEC50 [6] was 8.09 and the “TLR2-induced TNF-α production in human primary dendritic cells (DC)” value [7] was “blocks”.
